Test results reported in ChEMBL document CHEMBL3091297, “Antiprion compounds that reduce PrP(Sc) levels in dividing and stationary-phase cells” (Bioorg Med Chem, 2013).

Key:
[1] = Inhibition of RML prion protein infected in mouse dividing ScN2a-cl3 cells expressing full length mouse PrP assessed as reduction of PrPsc level after 5 days by Western blotting analysis; assay type: cell-based; details: N2a-cl3, 120 h
cells = assay type: cell-based; details: Mus musculus, N2a-cl3, 120 h
in vitro = details: mouse, dividing ScN2a-cl3 cells
N2a-cl3 [2] = experiment: Inhibition of RML prion protein infected in mouse dividing ScN2a-cl3 cells expressing full length mouse PrP assessed as reduction of PrPsc level at 10 uM after 5 days by ELISA; assay type: cell-based
N2a-cl3 [3] = experiment: Inhibition of RML prion protein infected in mouse stationary-phase ScN2a-cl3 cells expressing full length mouse PrP assessed as reduction of PrPsc level at 10 uM after 5 days by ELISA; assay type: cell-based

SMILES	EC50 [1] [nM]	EC50 (cells) [nM]	CC50 at 120 h (in vitro) [nM]	inhibition (N2a-cl3 [2]) [%]	inhibition (N2a-cl3 [3]) [%]
Cn1c(=N)n(CC(=O)c2ccc(Cl)cc2)c2ccccc21	4970	7320			
COc1ccc(-c2cc(-c3ccc(C)cc3O)[nH]n2)cc1	120	260			
COc1ccc(CCNC(=O)c2sc3nc(-c4cccs4)ccc3c2N)cc1OC		> 10000	> 10000		
COc1ccc(CN2CCN(c3ccc(C(C)=O)cc3)CC2)c(C)c1C				95	41
Nc1c(C(=O)Nc2ccc3c(c2)OCCO3)sc2nc(-c3cccs3)ccc12		420	> 10000		
Nc1c(C(=O)Nc2cc(F)ccc2F)sc2nc(-c3ccncc3)ccc12		2220	> 10000		
CN1C[C@H](C(=O)N[C@]2(C)O[C@@]3(O)[C@@H]4CCCN4C(=O)[C@H](Cc4ccccc4)N3C2=O)C[C@@H]2c3cccc4[nH]cc(c34)C[C@H]21 [DIHYDROERGOTAMINE]		6440	> 10000		
N#Cc1ccc(/C=C/c2ccc(F)cc2)cc1	530	1520			
CCc1ccc(-c2cn3cc(C)ccc3n2)cc1	290	710			
COc1ccc(-c2ccc3c(N)c(C(=O)Nc4ccc(F)cc4)sc3n2)cc1		140	> 10000		
CCOc1ccc(/N=N/c2ccc(N)cc2N)cc1 [ETHOXAZENE]		4760	> 10000		
COc1cc(N)c(-c2ccc3cc(OC)c(OC)cc3n2)cc1OC	1830	2560			
CCN1CCN(c2ccc(Nc3ccnc4cc5ccccc5cc34)cc2)CC1				76	51
COc1cccc(Nc2nc(N)c3ccccc3n2)c1	5990	4020			
CC(=O)c1ccc(N2CCN(Cc3cccc(Cl)c3)CC2)cc1				84	31
COc1ccc2cc3c(N)c(C(=O)Nc4ccc(C(C)=O)cc4)sc3nc2c1	60	80	> 10000		
CC(=O)c1ccc(N2CCN(Cc3ccccc3Cl)CC2)cc1				86	41
COc1cc(CNCCO)cc(Br)c1OCc1ccccc1Cl	2740	4830			
COc1ccc(-c2ccc3c(N)c(C(=O)Nc4cc(OC)c(OC)c(OC)c4)sc3n2)cc1		420	> 10000		
COc1ccccc1OCCNCC(O)COc1cccc2[nH]c3ccccc3c12 (stereo not given) [CARVEDILOL]		2280			
Clc1ccc(N2CCN(C3CCSC3)CC2)cc1 (stereo not given)				42	51
COc1ccc(-c2cc(-c3ccc(OC)cc3O)[nH]n2)cc1	100	70			
COc1ccc(-c2ccc3c(N)c(C(=O)Nc4cc(F)ccc4F)sc3n2)cc1		> 10000	> 10000		

SMILES	EC50 [1] [nM]	EC50 (cells) [nM]	CC50 at 120 h (in vitro) [nM]	inhibition (N2a-cl3 [2]) [%]	inhibition (N2a-cl3 [3]) [%]
Cc1ccc2[nH]c3c(c2c1)CCCC3NCC12CC3CC(CC(C3)C1)C2 (stereo not given)				98	53
CN1CCc2cccc3c2[C@H]1Cc1ccc(O)c(O)c1-3 [APOMORPHINE]		> 10000	> 10000		
COc1ccc(-c2ccc3c(N)c(C(=O)Nc4ccc(SC)cc4)sc3n2)cc1		290	> 10000		
CC(=O)c1ccc(NC(=O)c2sc3nc4c(cc3c2N)CCCC4)cc1		> 10000	> 10000		
CC(=O)c1ccc(N2CCN(CC(C)CCC=C(C)C)CC2)cc1 (stereo not given)				78	55
O=C(Nc1nc(-c2ccc3ccccc3c2)cs1)C1CC1	570	990			
CC(=O)c1ccc2c(c1)N(CCCN(C)C)c1ccccc1S2 [ACEPROMAZINE]		6930	> 10000		
CCc1ccc(-c2cn3ccccc3n2)cc1	4720	9160			
Oc1ccc(/C=C/c2cc(O)cc(O)c2)cc1 [RESVERATROL]	580	3060			
CNCCc1c(-c2ccccc2)n(-c2ccccc2)c2ccccc12				81	46
c1cncc(-c2nc(-c3c[nH]c4ccccc34)cs2)c1	830	270			
CC(=O)c1ccc(N2CCN(Cc3ccc(Br)s3)CC2)cc1				97	34
COc1ccc(-c2ccc3c(N)c(C(=O)Nc4ccc(F)cc4)sc3n2)cc1OC		240	> 10000		
O=C(Nc1ccc(F)c(Cl)c1)Nc1ccc(Cl)c(Cl)c1				92	61
CCOc1ccc(C(=O)Nc2ccc3oc(-c4ccc(OC)cc4)nc3c2)cc1	130	60			
COc1ccc(C(=O)Nc2ccc(-c3csc(C)n3)cc2)cc1	160	400			
Nc1c(/N=N/c2ccc(-c3ccc(/N=N/c4cc(S(=O)(=O)O)c5ccccc5c4N)cc3)cc2)cc(S(=O)(=O)O)c2ccccc12 [CONGO RED]		450	> 10000		
O=C(Nc1ccc(Cl)cc1)Nc1ccc(C(F)(F)F)cc1Cl				17	63
O=C(Nc1nc(-c2ccc(-c3ccccc3)cc2)cs1)C1CC1	190	250			
O=C(Nc1ccc(Br)cc1)Nc1cc(Cl)cc(Cl)c1				91	51
Cc1ccc2c(c1)c1c(n2CC(O)CO)C(=O)CCC1 (stereo not given)				14	39
COc1cc(CN2CCN(c3cccc(C)c3C)CC2)cc(Br)c1O				22	48
CC(=O)c1ccc(N2CCN(Cc3cccc(Br)c3)CC2)cc1				67	39

SMILES	EC50 [1] [nM]	EC50 (cells) [nM]	CC50 at 120 h (in vitro) [nM]	inhibition (N2a-cl3 [2]) [%]	inhibition (N2a-cl3 [3]) [%]
CCc1ccc(-c2cn3cc(C)sc3n2)cc1	520	1780			
COc1ccc2[nH]c3c(OC)ncnc3c2c1				81	37
CC(=O)c1ccc(N2CCN(Cc3ccc(F)cc3F)CC2)cc1				85	30
COc1ccc(CNC(=O)c2sc3nc(-c4cccs4)ccc3c2N)cc1		1830	> 10000		
COc1ccc2cc1Oc1ccc(cc1)C[C@H]1c3cc(c(OC)cc3CCN1C)Oc1c(OC)c(OC)cc3c1[C@H](C2)N(C)CC3 [FANCHININ]		2150	5010		
CC(=O)c1ccc(N2CCN(Cc3c(C)n(C)n(-c4ccccc4)c3=O)CC2)cc1				64	35
O=C(Nc1ccc(Cl)c(Cl)c1)NC(CC(=O)c1ccc([N+](=O)[O-])cc1)C(Cl)(Cl)Cl (stereo not given)				83	61
O=C(Nc1ccccc1)Nc1ccc(F)c(Cl)c1				87	56
Cn1c(=N)n(CC(=O)c2ccc(Br)cc2)c2ccccc21	1450	2580			
CCOc1ccc(NC(=O)c2cc3ccccc3cc2O)cc1	40	130			
CC(=O)c1ccc(N2CCN(Cc3ccccc3)CC2)cc1	620	710			
CC(=O)c1ccc(N2CCN(Cc3cccnc3)CC2)cc1	890				
Cc1[nH]c2ccccc2c1-c1csc(-c2cccnc2)n1	1700	3130			
Nc1c(C(=O)Nc2ccc(F)cc2)sc2nc(-c3ccc4c(c3)OCO4)ccc12		750	> 10000		
CC(=O)c1ccc(NC(=O)c2sc3nc(-c4cccs4)ccc3c2N)cc1		100	> 10000		
Cc1ccc2[nH]c3c(c2c1)CCCC3NC1CCCCC1 (stereo not given)				27	48
c1ccc2cc(-c3cn4ccsc4n3)ccc2c1	2490	6020			
OCCNCc1cc(Br)ccc1OCc1ccc(Cl)cc1Cl	1990	4300			
COc1ccc(-c2nc3cc(NC(=O)c4ccc(OCc5ccccc5)cc4)ccc3o2)cc1	2570	70			
O=C(Nc1ccc(Cl)cc1)Nc1ccc(Cl)c(F)c1				25	66
CN(C)CCNc1nc(-c2ccc(Cl)cc2)nc2ccccc12	2010	2650			
COc1ccc(-c2ccc3c(N)c(C(=O)Nc4ccc(OC)c(OC)c4)sc3n2)cc1		> 10000	> 10000		
